Reference: patent US20230146455A1, “TREATMENT OF INFLAMMATORY DISEASES WITH PEPTIDES AND PHARMACEUTICAL COMPOSITIONS” (Yuyu Pharma, Inc., priority 2020, published 2023)
Several values for one entry are separate records, joined by “and”; a condition that tells them apart may be missing. Equal values may be shown once. Where a SMILES comes first, the peptide text is derived from it. [ ]: non-standard residue; d: D form. Hyp = O=C(O)[C@@H]1C[C@@H](O)CN1

Tested on: IL-1 alpha/IL-1F1
Assay: Example 8 main study Luminex, LPS hPBMCs: IL-1 alpha/IL-1F1
Type: cell-based, human
Protocol: Human PBMCs were pretreated with YY-101, YDE-011, YDE-043 or reference compound; Xiidra® at various concentration (ranging from […] to 500 nM) for 2 h before stimulation. An equal volume of 0.5% DMSO was used as a vehicle control. Then, the cells were treated with LPS at 5 ug/ml, which was selected based on the pilot study. The supernatants from treated cells were harvested at 24 h and placed in a 96 well for Luminex cytokine & chemokine profiling using a Luminex 200 multiplex assay (Luminex; R&D system, USA).
The main study arm with triplicate wells per group in a 24-well plate: • 1. Blank • 2. PBMC: 0.5% DMSO • 3. PBMC+LPS (5 ug/ml) • 4. PBMC+YY-101 500 nM • 5. PBMC+YY-101 50 nM • 6. PBMC+YY-101 5 nM • 7. PBMC+YY-101 0.5 nM • 8. PBMC+LPS (5 ug/ml)+Xiidra® 500 nM • 9. PBMC+LPS (5 ug/ml)+Xiidra® 50 nM • 10. PBMC+LPS (5 ug/ml)+Xiidra® 5 nM • 11. PBMC+LPS (5 ug/ml)+Xiidra® 0.5 nM • 12. PBMC+LPS (5 ug/ml)+Xiidra® 0.05 nM • 13. PBMC+LPS (5 ug/ml)+Xiidra® 0.005 nM • 14. PBMC+LPS (5 ug/ml)+YY-101 500 nM • 15. PBMC+LPS (5 ug/ml)+YY-101 50 nM • 16. PBMC+LPS (5 ug/ml)+YY-101 5 nM • 17. PBMC+LPS (5 ug/ml)+YY-101 0.5 nM • 18. PBMC+LPS (5 ug/ml)+YY-101 0.05 nM • 19. PBMC+LPS (5 ug/ml)+YY-101 0.005 nM • 20. PBMC+LPS (5 ug/ml)+YDE-011 500 nM • 21. PBMC+LPS (5 ug/ml)+YDE-011 50 nM • 22. PBMC+LPS (5 ug/ml)+YDE-011 5 nM • 23. PBMC+LPS (5 ug/ml)+YDE-011 0.5 nM • 24. PBMC+LPS (5 ug/ml)+YDE-011 0.05 nM • 25. PBMC+LPS (5 ug/ml)+YDE-011 0.005 nM • 26. PBMC+LPS (5 ug/ml)+YDE-043 500 nM • 27. PBMC+LPS (5 ug/ml)+YDE-043 50 nM • 28. PBMC+LPS (5 ug/ml)+YDE-043 5 nM • 29. PBMC+LPS (5 ug/ml)+YDE-043 0.5 nM • 30. PBMC+LPS (5 ug/ml)+YDE-043 0.05 nM • 31. PBMC+LPS (5 ug/ml)+YDE-043 0.005 nM
Multiplex assay was used to measure 30 cytokines and chemokines. The 1:200 diluted cell supernatant and serial dilution of the standard were dispensed into a 96 well plate at 50 ul/well. Then, the pre-mixed cocktail of antibody-coated magnetic beads was dispensed at 50 ul/well and incubated at room temperature for 2 h in a horizontal orbital microplate shaker at 800±500 rpm. The beads were washed using a magnetic device to prevent loss. The biotin-antibody was dispensed in 50 ul of each well and incubated at room temperature for 1 h in a shaker at 800±500 rpm. After washing, streptavidin-PE was added at 50 ul/well and incubated at room temperature for 30 min in a shaker under the same conditions. Finally, after washing, wash buffer (100 ul/well) was added to the plate and incubated in a shaker for 2 min. The Luminex™ 200 setting were set according to the manufacturer's protocol. The data was calculated with a standard five-parameter logistic nonlinear regression analysis of the data (xPonent software 4.2, USA). Results were presented as concentration (ng/ml or pg/ml).

[1] = PBMC + LPS(5 ug/ml) + test article 0.005 nM, Mean
[2] = PBMC + LPS(5 ug/ml) + test article 0.005 nM, individual replicates
[3] = PBMC + LPS(5 ug/ml) + test article 0.05 nM, Mean
[4] = PBMC + LPS(5 ug/ml) + test article 0.05 nM, individual replicates
[5] = PBMC + LPS(5 ug/ml) + test article 0.5 nM, Mean
[6] = PBMC + LPS(5 ug/ml) + test article 0.5 nM, individual replicates
[7] = PBMC + LPS(5 ug/ml) + test article 5 nM, Mean
[8] = PBMC + LPS(5 ug/ml) + test article 5 nM, individual replicates
[9] = PBMC + LPS(5 ug/ml) + test article 50 nM, Mean
[10] = PBMC + LPS(5 ug/ml) + test article 50 nM, individual replicates
[11] = PBMC + LPS(5 ug/ml) + test article 500 nM, Mean
[12] = PBMC + LPS(5 ug/ml) + test article 500 nM, individual replicates

In the case of `CC(C)C[C@H](NC(=O)CNC(=O)[C@H](CC(C)C)NC(=O)[C@H](CCC(N)=O)NC(=O)CNC(=O)[C@@H]1C[C@@H](O)CN1)C(=O)N[C@@H](C)C(=O)NCC(=O)N1CCC[C@H]1C(=O)N[C@@H](CCCCN)C(=O)O` [YDE-011] (H-[Hyp]GQLGLAGPK-OH), the “IL-1 alpha/IL-1F1 Concentration” value [1] is reported as 510.2 pg/mL, the “IL-1 alpha/IL-1F1 MFI” value [1] is reported as 31.2 and the “IL-1 alpha/IL-1F1 Concentration” value [2] is reported as 595.1 pg/mL and 460.1 pg/mL and 475.3 pg/mL. For the same compound, the “IL-1 alpha/IL-1F1 MFI” value [2] was 34.0 and 29.5 and 30.0, the “IL-1 alpha/IL-1F1 Concentration” value [3] was 510.3 pg/mL and the “IL-1 alpha/IL-1F1 MFI” value [3] was 31.2. For the same compound, the “IL-1 alpha/IL-1F1 Concentration” value [4] was 535.6 pg/mL and 550.5 pg/mL and 444.9 pg/mL, the “IL-1 alpha/IL-1F1 MFI” value [4] was 32.0 and 32.5 and 29.0 and the “IL-1 alpha/IL-1F1 Concentration” value [5] was 403.8 pg/mL. The “IL-1 alpha/IL-1F1 MFI” value [5] was 27.7, the “IL-1 alpha/IL-1F1 Concentration” value [6] was 429.6 pg/mL and 383.2 pg/mL and 398.7 pg/mL and the “IL-1 alpha/IL-1F1 MFI” value [6] was 28.5 and 27.0 and 27.5. The “IL-1 alpha/IL-1F1 Concentration” value [7] was 324.6 pg/mL, the “IL-1 alpha/IL-1F1 MFI” value [7] was 25.2 and the “IL-1 alpha/IL-1F1 Concentration” value [8] was 256.0 pg/mL and 288.4 pg/mL and 429.6 pg/mL. The “IL-1 alpha/IL-1F1 MFI” value [8] was 23.0 and 24.0 and 28.5, the “IL-1 alpha/IL-1F1 Concentration” value [9] was 278.0 pg/mL and the “IL-1 alpha/IL-1F1 MFI” value [9] was 23.8. The “IL-1 alpha/IL-1F1 Concentration” value [10] was 320.3 pg/mL and 84.2 pg/mL and 429.6 pg/mL, the “IL-1 alpha/IL-1F1 MFI” value [10] was 25.0 and 18.0 and 28.5 and the “IL-1 alpha/IL-1F1 Concentration” value [11] was 275.3 pg/mL. For the same compound, the “IL-1 alpha/IL-1F1 MFI” value [11] was 24.0, the “IL-1 alpha/IL-1F1 Concentration” value [12] was 535.6 pg/mL and 1.9 pg/mL and 288.4 pg/mL and the “IL-1 alpha/IL-1F1 MFI” value [12] was 32.0 and 16.0 and 24.0.
